The source made the active and inactive calls.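 How the source made its calls: active means compounds giving half or more protection of infected cells from virus-caused growth loss, again on retest; inactive means the rest.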 Bounds are passed on as bounds.

The assay has as its system CEM cells HIV-1 protection, formazan growth assay. Put plainly: NCI AIDS Antiviral Assay. The settings on record: for IC50: measured here: growth of uninfected CEM cells. Put shortly: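 Protection of CEM cells against HIV-1 was scored from cell growth (soluble formazan) across five concentrations, with parallel uninfected cells. Lack of protection may reflect toxicity.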

With `COC(=O)c1ccccc1C1CN=NC12Cc1ccc(C)c(C)c1C2=O` (stereo unspecified), the EC50 (as a rule, the concentration at which the effect is half-maximal) is greater than 200 µM and the 50% inhibitory concentration (IC50) (as a rule, the concentration at which inhibition is half-maximal) worked out at 37.2 µM.
Regarding `N#CC(C#N)=Cc1ccccc1O`, the EC50 was greater than 200 µM and the IC50 is 40.7 µM.
The corresponding values for `O=c1c(OS(=O)(=O)O)c(-c2ccc(OS(=O)(=O)O)cc2OS(=O)(=O)O)oc2cc(OS(=O)(=O)O)cc(OS(=O)(=O)O)c12` are greater than 100 µM and greater than 100 µM.
With `CCCCCCCCCCCCCCCCCCNC(=S)/N=C/c1c(O)c2ccccc2[nH]c1=O`, the EC50 was greater than 200 µM and the IC50 stood at 44.7 µM.
The corresponding values for `CC1=NNC(N)=N/C1=C\C(Sc1ccc(Cl)cc1)c1ccc([N+](=O)[O-])cc1` (stereo unspecified) are greater than 117 µM and 30.9 µM.
For `COc1ccc(CCNC(=O)CCCCCO)cc1OC`, the EC50 is greater than 200 µM and the 50% inhibitory concentration (IC50) amounted to 195 µM.
Consider `O=C(O)c1cc(Cc2cc(C(c3ccc(O)c(C(=O)O)c3)c3ccc(O)c(C(=O)O)c3)cc(C(=O)O)c2O)ccc1O`, for which the concentration giving a half-maximal response (EC50) was 95.5 µM and the concentration for half-maximal inhibition (IC50) worked out at 195 µM.
With `CN1CCCNC(=S)C1`, the result was inactive.
On the same count and under the same terms, in the case of `CN1N=CSC12C(=O)N(c1ccc(Cl)cc1)C(=O)N2c1ccc(Cl)cc1` (stereo unspecified) it was “inactive”.
Take `O=C(Nc1ccccc1)n1cc(-c2ccccn2)c(N2CCOCC2)n1`: the EC50 is greater than 195 µM and the 50% inhibitory concentration (IC50) was 53.7 µM.
With `CCOc1ccc2nc(NC(=O)c3c/c(=N\NC(=O)C[N+](C)(C)C)c4ccc(O)cc4o3)sc2c1`, the EC50 is greater than 178 µM and the IC50 amounted to 2.24 µM.
With `O=C(NCCc1c[nH]c2ccccc12)C(F)(F)F`, the EC50 was greater than 200 µM and the half-inhibitory concentration (IC50) is greater than 200 µM.
As for `C/C(CC(=O)Nc1ccccc1[N+](=O)[O-])=N\NC(N)=O`, the EC50 was greater than 468 µM and the 50% inhibitory concentration (IC50) was greater than 468 µM.
As to `CCCCC1Sc2cc(OC)cc3c2N(CCN3)C1=O` (stereo unspecified), the EC50 was greater than 200 µM and the 50% inhibitory concentration (IC50) was found to be 28.2 µM.
Consider `CC(C)(C)[Si](C)(C)OCC1OC(n2ccc(=O)[nH]c2=O)C(O[Si](C)(C)C(C)(C)C)C1CCN(O)CC1OC(n2ccc(=O)[nH]c2=O)C(O[Si](C)(C)C(C)(C)C)C1O[Si](C)(C)C(C)(C)C` (stereo unspecified), for which the EC50 was greater than 100 µM and the IC50 was greater than 100 µM.
In the case of `N#C/C(C(=S)NCc1ccccc1)=C(/N)N1CCCC1`, the EC50 is greater than 200 µM and the half-inhibitory concentration (IC50) stood at 148 µM.
Regarding `N#Cc1c(N)oc2cc3c(C#N)c(N)oc3cc12`, the outcome was inactive.
On the same count and under the same terms, in the case of `Cc1ccc(O)c(C(c2cc(C)ccc2O)c2cc([N+](=O)[O-])ccc2O)c1` it was “inactive”.
Regarding `CCOC(=O)CCC(NC(=O)c1ccc(Nc2cnc3ccc(C(F)(F)F)cc3n2)cc1)C(=O)OCC` (stereo unspecified), the EC50 is greater than 200 µM and the half-maximal inhibitory concentration (IC50) turned out to be 18.6 µM.
On to `CC(=[OH+])[CH-]C(C)=NCC(C)N=C(C)CC(C)=[OH+].[Cu+2]` (stereo unspecified), for which the EC50 was greater than 200 µM and the IC50 worked out at 20.9 µM.
As for `O=C(O)/C=C/C=C/C(=O)O`, the EC50 was greater than 200 µM and the half-maximal inhibitory concentration (IC50) was greater than 200 µM.
Consider `CC(C)(C)OC1=C(OC(C)(C)C)C(O)(c2ccc(Cl)cc2)C1=O` (stereo unspecified), for which the outcome was inactive.
Consider `O=[N+]([O-])c1ccc(/C=C/c2ccc([N+](=O)[O-])cc2S(=O)(=O)O)c(S(=O)(=O)O)c1`, for which the outcome was inactive.
`O=C1c2ccccc2C(=O)c2c(NCCCNCCO)ccc(NCCCNCCO)c21`: the outcome was inactive.
For `CSc1nc(-c2ccc(Cl)cc2)c(C#N)c(=O)[nH]1`, the outcome was inactive.
Turning to `COc1ccc(C=O)c(NC(=O)C(C)C)c1`, the result was inactive.
As for `CN(C)Cc1cc(C(=O)/C=C/c2ccc(Cl)c(Cl)c2)cc(CN(C)C)c1O`, the EC50 was greater than 200 µM and the concentration for half-maximal inhibition (IC50) was 2.75 µM.
The corresponding values for `O=C(c1cccc(O)c(=O)c1)C1OC1c1ccccc1` (stereo unspecified) are greater than 145 µM and 2.82 µM.
As for `CSc1c(N(C)C)c(=O)c1=S`, the EC50 was greater than 200 µM and the half-inhibitory concentration (IC50) stood at 4.9 µM.
Turning to `CC(=O)NS(=O)(=O)c1ccc(NC(=O)c2ccccc2SC(C)=O)cc1`, the concentration giving a half-maximal response (EC50) is 17 µM and the concentration for half-maximal inhibition (IC50) was found to be 112 µM.
On to `CCN(C(C)=O)c1cnc(/C=N/NC(N)=S)c2ccccc12`, for which the EC50 was greater than 200 µM and the concentration for half-maximal inhibition (IC50) turned out to be 2.57 µM.
With `C=C[C@]1(O[Si](C)(C)C)C[C@@]2(C(=O)OCC)C(O)C(=O)N3CCc4cc(OC)c(OC)cc4[C@]312` (stereo partly specified), the EC50 is greater than 200 µM and the 50% inhibitory concentration (IC50) is greater than 200 µM.
Turning to `COc1cc(Oc2nc3c(N)cc(C(F)(F)F)cc3nc2-c2ccccc2)cc(OC)c1OC`, the EC50 was greater than 20 µM and the IC50 is 14.1 µM.
Take `Cc1ccnc(NC(=O)Nc2cc(Cl)ccc2Cl)c1`: the EC50 is greater than 200 µM and the IC50 is greater than 200 µM.
On to `Cc1sc2nc3n(c(=O)c2c1C)N=CN(c1ccc(F)cc1)C3`, for which the EC50 is 30.9 µM and the IC50 is greater than 100 µM.
Turning to `C=C(C)CC1(O)C(=O)C(OCC)=C1OCC` (stereo unspecified), the EC50 is greater than 200 µM and the concentration for half-maximal inhibition (IC50) is greater than 200 µM.
`CP(C)(=S)P(C)(C)=S`: the EC50 was greater than 200 µM and the 50% inhibitory concentration (IC50) is 110 µM.
Take `O=C(CCCN1CCC2(CC1)OC(=O)N(c1ccccc1)C2=O)c1ccccc1`: the EC50 was greater than 200 µM and the IC50 is greater than 200 µM.
As for `O=C(C[n+]1ccccc1)N/N=C(/CCC(=O)N(Cc1ccccc1)Cc1ccccc1)CC(=O)c1ccccc1`, the EC50 was greater than 437 µM and the IC50 was greater than 437 µM.
As to `O=C(O/C(=C(/N=Nc1ccccc1)c1ccccc1)c1ccccc1)c1ccccc1`, the outcome was inactive.
On to `COC(=O)C[C@@H]1C(C)(C)[C@@H]2O[C@@]34C[C@@H]2C(=O)[C@]1(C)[C@H]3CC[C@@]1(C)[C@H](c2ccoc2)OC(=O)C[C@]14O`, for which the EC50 is greater than 200 µM and the 50% inhibitory concentration (IC50) is 120 µM.
In the case of `COS(=O)c1cc(Cl)cc(Cl)c1OC(=O)CSSCC(=O)Oc1c(Cl)cc(Cl)cc1S(=O)OC` (stereo unspecified), the result was inactive.
In the case of `C=C(C)C(=O)O[C@H]1C/C(CO)=C/CCC(=C)C(OC(C)=O)[C@H]2OC(=O)C(=C)[C@H]12` (stereo partly specified), the EC50 was greater than 200 µM and the IC50 is 1.05 µM.
The corresponding values for `COC(=O)CCNC(=O)OCc1ccccc1` are greater than 200 µM and greater than 200 µM.
The corresponding values for `O=CC(O)C(O)C(O)C(O)COP(=O)(O)Cc1ccccc1` (stereo unspecified) are greater than 200 µM and greater than 200 µM.
In the case of `CCC(=O)CCCC=C(c1cc(Cl)c(OC)c(C=O)c1)c1cc(Cl)c(OC)c(C=O)c1`, the EC50 is greater than 200 µM and the half-inhibitory concentration (IC50) was found to be 1.12 µM.
Turning to `Cc1ccc(Nc2nc3c(s2)C(=O)c2ccccc2C3=O)c(C)c1`, the EC50 is greater than 30.2 µM and the concentration for half-maximal inhibition (IC50) was determined as 15.8 µM.
For the compound `NC1=NC2=C(CCCC2)C(c2cccs2)S1` (stereo unspecified), the EC50 is greater than 145 µM and the IC50 is greater than 145 µM.
In the case of `Cn1c2c(c3ccccc3c1=O)C(=O)c1ccccc1-2`, the EC50 was greater than 14.5 µM and the 50% inhibitory concentration (IC50) came to 7.41 µM.
Turning to `CO[C@H](C(=O)[C@@H](O)[C@@H](C)O)[C@@H]1Cc2cc3cc(OC4CC(OC5CC(O)C(O)C(C)O5)C(O)C(C)O4)c(C)c(O)c3c(O)c2C(=O)[C@H]1OC1CC(OC2CC(OC3CC(C)(O)C(O)C(C)O3)C(O)C(C)O2)C(O)C(C)O1` (stereo partly specified), the EC50 is greater than 0.0302 µM and the 50% inhibitory concentration (IC50) was greater than 0.0302 µM.
For `NN=C(N)N`, the EC50 was greater than 200 µM and the IC50 is greater than 200 µM.

For the origin of these results see PubChem BioAssay AID179 (DTP/NCI, 2004).
